Results from patent US8304238B2, “Cell culture medium and immobilized preparation of cell adhesion protein or peptide” (Nat'l Institute for Environmental Studies, priority 2003, dated 2012).
Where no end group is shown, it is not given here. [ ]: non-standard residue; d: D form. Nle = CCCC[C@H](N)C(=O)O

Key:
[1] = system: alveolar type II epithelial cells (T2 cells); assay: Inhibition of T2 cell adhesion to immobilized pseudomatrices by heparin treatment; type: cell-based; settings: Nle used instead of Met
Procedure: Pseudomatrices prepared in Example 13 to which each cell adhesion peptide was bound (MBAC-peptide) was diluted in DMEM medium to the concentration of 1-10 μg/ml, poured into 96-wells by 100 μl each, and left still overnight in a CO2 incubator to be adsorbed and immobilized on the wells. Non-adsorbed MBAC-peptide was removed by rinsing well with DMEM medium. Next, 100 μl of DMEM in which 1 mg/ml of heparin was dissolved was poured into the wells, incubated for 2 hours to allow heparin to bind to the peptides. Control groups were treated with DMEM only. Heparin was removed after the treatment, and T2 cells suspended at the concentration of 6×10^5 cells/ml were seeded by 100 μl each. After 1-day serum-free culture, T2 cells were fixed with 100 μl of methanol for 5 minutes, and stained with 50 μl of 0.4% crystal violet for 30 minutes. Excessive staining was washed with water, and the number of adhering cells was counted based on the absorbance of cytoplasm (A595).

[2] = system: alveolar type II epithelial cells (T2 cells); assay: Inhibition of T2 cell adhesion to immobilized pseudomatrix by treatment with polyclonal antibodies for the peptides; type: cell-based; settings: for Inhibition of cell adhesion by anti-FIB-1 antibody: immobilized at 1 μg/ml; for Cell adhesion ability of immobilized pseudomatrix compared with coated FN: MBAC-peptide 1-10 μg/ml in DMEM; for Inhibition of cell adhesion by treatment with antibodies for the peptides: antibodies 4-10 μg/ml, 2-4 hours
Procedure: (§1) Each pseudomatrix prepared in Example 13 to which cell adhesion peptide was bound (MBAC-peptide) was diluted in DMEM medium to the concentration of 1-10 μg/ml, poured into a 96-well by 100 μl each, and left still overnight in a CO2 incubator to be adsorbed and immobilized on the wells. Non-adsorbed MBAC-peptides were removed by rinsing well with DMEM medium. Next, 100 μl of antibodies diluted with serum-free DMEM to the concentration of 4-10 μg/ml was poured into a well, incubated for 2-4 hours to let the antibodies bind to the peptides. Normal IgG was used for control groups. Antibodies were removed after the treatment, T2 cells suspended at the concentration of 6×10^5 cells/ml were seeded by 100 μl each. After 1-day serum-free culture, T2 cells were fixed with 100 μl of methanol for 5 minutes, and stained with 50 μl of 0.4% crystal violet for 30 minutes. Excessive staining was washed with water, and the number of adhering cells was counted based on the absorbance of cytoplasm (A595).

[3] = system: alveolar type II epithelial cells (T2 cells); assay: Inhibition of T2 cell adhesion by anti-FIB-1 antibody after MBAC/MAST-FIB-1 in 50% ethanol is air-dried/immobilized; type: cell-based; settings: 4 μg/ml antibody 4 hours; FIB-1 concentration 0.1-0.25 μg/well
Procedure: In the same manner as in Example 21, MBAC/MAST-FIB-1 was diluted with 50% ethanol, poured into wells, and air-dried/immobilized. Before T2 cells were seeded, 100 μl of 4 μg/ml anti-FIB-1 polyclonal antibody was poured into the well, and incubated for 4 hours to allow the antibody to bind to the immobilized FIB-1 peptide. Controls were treated with normal IgG. T2 cells were cultured, fixed, and stained in the same manner as in Example 21.

[4] = system: alveolar type II epithelial cells (T2 cells); assay: Adhesion of T2 cells to pseudomatrices dissolved in 50% ethanol and air-dried/immobilized, and competitive inhibition by free peptide; type: cell-based; settings: for Adhesion of T2 cells to pseudomatrix compared with coated FN: 50% ethanol, air-dried, 0.1-1.0 μg/well, 24 hours serum-free
Procedure: 50 μl of 2-20 μg/ml MAST-GRGDSP (Gly-Arg-Gly-Asp-Ser-Pro) (SEQ ID NO: 22) and MMAC-GRGDSP (SEQ ID NO: 22) dissolved in 50% ethanol were poured into wells, and air-dried/immobilized. Next, the wells to which MAST-GRGDSP (SEQ ID NO: 22) and MMAC-GRGDSP (SEQ ID NO: 22) (0.1-1.0 μg/well) were coated were rinsed with the serum-free DMEM medium. T2 cells suspended in the medium at the concentration of 6×10^4 cells/100 μl were seeded, and cultured in a CO2 incubator at 37° C. for 24 hours. Then, the cells were fixed with methanol, stained, and measured its absorbance according to the method in Example 7. A culture wherein FN was coated as a standard material was conducted simultaneously. The cell adhesion on FN was shown as a standard (100%).
In the same manner as in Example 18, MAST-GRGDSP (SEQ ID NO: 22) was dissolved in 50% ethanol, air-dried/immobilized on wells, and T2 cells were seeded/cultured thereon. Separately, just before the cells were seeded, 0.25-4.0 mg/ml of free GRGDSP (SEQ ID NO: 22) peptide was added to the cell suspension, and the culture and the subsequent measurement of absorbance were conducted in the same manner as described above. […] Further, when the applied amount of MAST-GRGDSP (SEQ ID NO: 22) was decreased, the immobilized amount of GRGDSP (SEQ ID NO: 22) decreased, and the competitive inhibition by free GRGDSP (SEQ ID NO: 22) peptide worked more effectively.
In the same manner as in Example 18, MMAC-GRGDSP (SEQ ID NO: 22) was dissolved in 50% ethanol, air-dried/immobilized on wells, and T2 cells were seeded/cultured thereon. Separately, just before the cells were seeded, 0.25-4.0 mg/ml of free GRGDSP (SEQ ID NO: 22) peptide was added to the cell suspension, and the culture and the subsequent measurement of absorbance were conducted in the same manner as described above.
In the same manner as in Example 18, MBAC/MAST-AG73 and -FIB-1 were dissolved in 50% ethanol, air-dried/immobilized on wells, and T2 cells were seeded/cultured thereon. Separately, just before the cells were seeded, 0.25 mg/ml of free AG73 or FIB-1 peptide was added to the cell suspension, and the culture and the subsequent measurement of absorbance were conducted in the same manner as described above.

[5] = system: alveolar type II epithelial cells (T2 cells); assay: Adhesion of T2 cells to pseudomatrix adsorbed/immobilized from DMEM and competitive inhibition by free peptides; type: cell-based; settings: for Competitive inhibition of cell adhesion to pseudomatrix by free cell adhesion peptide: pseudomatrix 1-10 μg/ml in DMEM
Procedure: 200 mg each of hydrophobic binding-adsorptive polymer, MBAC, MAST or MMAC were dispersed into water, and 1 N NaOH solution was added little by little to dissolve them completely. 50 mg of WSC (1-ethyl-3-(3-dimethylamino propyl)carbodiimide, hydrochloride) was added to the resulting solution, and the reaction was conducted for 2 hours. Subsequently, 20 mg of peptide was added, and the reaction was continued with stirring for 2 hours at room temperature. After the reaction was finished, the reactant was subjected to dialysis with water to remove alkaline and low molecules, and then freeze-dried to prepare a pseudomatrix of interest.
as §1, with “μg/ml, and the resultant solution was” for “μg/ml,”, “Next,” for “Next, 100 μl of antibodies diluted with serum-free DMEM to the concentration of 4-10 μg/ml was poured into a well, incubated for 2-4 hours to let the antibodies bind to the peptides. Normal IgG was used for control groups. Antibodies were removed after the treatment,”, “seeded in the serum-free DMEM” for “seeded”
In the same manner as in Example 14, each pseudomatrix prepared in Example 13 to which cell adhesion peptide was bound (MAST-peptide) was adsorbed and immobilized on a 96-well, and T2 cells were seeded and cultured thereon.

[6] = biological target: adhesion receptor present on the cell surface of T2 cells (not named); assay: T2 cell adhesion to FIB-1 and the peptide co-immobilized on MMAC-coated wells, inhibition by free FIB-1 (FIG. 9)
[7] = biological target: adhesion receptor present on the cell surface of T2 cells (not named); assay: T2 cell adhesion to immobilized peptides, competitive inhibition by free peptides (FIGS. 8 and 9)
[8] = biological target: adhesion receptor present on the cell surface of T2 cells (not named); assay: cell-based or functional assay
[9] = biological target: integrin on T2 cells (integrin α5β1); assay: reference of the ratio; T2 cell adhesion to immobilized peptides (FIGS. 8 and 9)
[10] = biological target: syndecan present on the cell surface of T2 cells (alveolar type II epithelial cells); assay: T2 cell adhesion to FIB-1 and AG73 co-immobilized on MMAC-coated wells, inhibition by free FIB-1 (FIG. 9)
[11] = biological target: syndecan present on the cell surface of T2 cells (alveolar type II epithelial cells); assay: T2 cell adhesion to immobilized peptides, competitive inhibition by free peptides (FIGS. 8 and 9)

polymer-A5G73X: pseudomatrix: polymer (MBAC in FIG. 14) reacted with A5G73X peptide (RNRLHLS[Nle]LVRP; also: peptide reacted with MBAC polymer (pseudomatrix))
Cell adhesion ability of Nle pseudomatrix compared with immobilized Met peptide [1]: the same level of cell adhesion ability

MAST-FIB-1: pseudomatrix: MAST polymer reacted with FIB-1 peptide (YAVTGRGDSPAS)
Inhibition of cell adhesion by anti-FIB-1 antibody [2]: equally inhibited | Degree of inhibition of cell adhesion by the antibody ([2]; immobilized at 2.5-10 μg/ml): low | Inhibition of cell adhesion by anti-FIB-1 polyclonal antibody [3]: specifically inhibited by the antibody | Competitive inhibition of cell adhesion by free peptide ([4]; 50% ethanol air-dried pseudomatrix, 0.25 mg/ml free AG73 or FIB-1): worked more effectively in accordance with the decrease in the amount of immobilized FIB-1 | Adhesion of T2 cells to pseudomatrix compared with coated FN [4]: similarly to the case where FN was coated | Cell adhesion ability of immobilized pseudomatrix compared with directly coated FN ([5]; 1-10 μg/ml in DMEM, 1-day serum-free culture, excluding 1 μg/ml of MBAC-AG73): the same level of cell adhesion ability as in the case where FN was directly coated | Competitive inhibition of cell adhesion to pseudomatrix by free cell adhesion peptide [5]: competitively inhibited by the free cell adhesion peptide, the degree is lower than the case of MBAC-peptide

MBAC-FIB-1: pseudomatrix: MBAC polymer reacted with FIB-1 peptide (YAVTGRGDSPAS)
Cell adhesion ability of immobilized pseudomatrix compared with coated FN [2]: the same level of cell adhesion ability as in the case where FN was coated | Inhibition of cell adhesion by treatment with antibodies for the peptides [2]: specifically inhibited | Inhibition of cell adhesion by anti-FIB-1 antibody [2]: equally inhibited | Inhibition of cell adhesion by anti-FIB-1 polyclonal antibody [3]: specifically inhibited by the antibody | Adhesion of T2 cells to pseudomatrix compared with coated FN [4]: similarly to the case where FN was coated | Competitive inhibition of cell adhesion to pseudomatrix by free cell adhesion peptide [5]: competitively inhibited

MBAC-A4G82X: pseudomatrix: MBAC polymer reacted with A4G82X peptide (TLFLAHGRLVF[Nle]; also: peptide reacted with MBAC polymer (pseudomatrix))
Cell adhesion ability of Nle pseudomatrix compared with immobilized Met peptide [1]: the same level of cell adhesion ability | Competitive inhibition of cell adhesion to pseudomatrix by free cell adhesion peptide [5]: inhibited by free A4G82 peptide

MBAC-AG81.2X: pseudomatrix: MBAC polymer reacted with AG81.2X peptide (VKTEYIKRKAF[Nle]; also: peptide reacted with MBAC polymer (pseudomatrix))
Cell adhesion ability of immobilized pseudomatrix compared with coated FN [2]: the same level of cell adhesion ability as in the case where FN was coated | Inhibition of cell adhesion by treatment with antibodies for the peptides [2]: specifically inhibited | Cell adhesion ability of Nle pseudomatrix compared with immobilized Met peptide [1]: the same level of cell adhesion ability

polymer-AG76.8X: pseudomatrix: polymer (MBAC in FIG. 14) reacted with AG76.8X peptide (TLQLQEGRLHF[Nle]; also: peptide reacted with MBAC polymer (pseudomatrix))
Cell adhesion ability of Nle pseudomatrix compared with immobilized Met peptide [1]: the same level of cell adhesion ability

GPLPSYLQFVGI [A5G71 (Gly-Pro-Leu-Pro-Ser-Tyr-Leu-Gln-Phe-Val-Gly-Ile)]
mixing ratio at the transitional midpoint (peptide to FIB-1) [6]: 1 | Binding strength to T2 cells, Ratio to FIB-1 (fold (ratio to FIB-1)) [7]: < 1

GRGDSP [GRGDSP (Gly-Arg-Gly-Asp-Ser-Pro)]
competitive inhibition of T2 cell adhesion to immobilized MAST-GRGDSP by free GRGDSP peptide [8]: 4 mg/mL | competitive inhibition of T2 cell adhesion to immobilized MMAC-GRGDSP by free GRGDSP peptide [8]: 1 to 4 mg/mL

YAVTGRGDSPAS [FIB-1 (Tyr-Ala-Val-Thr-Gly-Arg-Gly-Asp-Ser-Pro-Ala-Ser)]
Binding strength to T2 cells, Ratio to FIB-1 (fold (ratio to FIB-1)) [9]: 1

RKRLQVQLSIRT [AG73 (Arg-Lys-Arg-Leu-Gln-Val-Gln-Leu-Ser-Ile-Arg-Thr)]
mixing ratio at the transitional midpoint (peptide to FIB-1) [10]: 0.01 | Binding strength to T2 cells, Ratio to FIB-1 (fold (ratio to FIB-1)) [11]: 100
